Assay results taken from publication doi:10.1101/2022.06.02.493408v1 (biorxiv, 2022).

Target: T1, WT BetP (AMP-BetP) (Corynebacterium glutamicum, UniProt P54582)
T1 sequence (P54582 1-595): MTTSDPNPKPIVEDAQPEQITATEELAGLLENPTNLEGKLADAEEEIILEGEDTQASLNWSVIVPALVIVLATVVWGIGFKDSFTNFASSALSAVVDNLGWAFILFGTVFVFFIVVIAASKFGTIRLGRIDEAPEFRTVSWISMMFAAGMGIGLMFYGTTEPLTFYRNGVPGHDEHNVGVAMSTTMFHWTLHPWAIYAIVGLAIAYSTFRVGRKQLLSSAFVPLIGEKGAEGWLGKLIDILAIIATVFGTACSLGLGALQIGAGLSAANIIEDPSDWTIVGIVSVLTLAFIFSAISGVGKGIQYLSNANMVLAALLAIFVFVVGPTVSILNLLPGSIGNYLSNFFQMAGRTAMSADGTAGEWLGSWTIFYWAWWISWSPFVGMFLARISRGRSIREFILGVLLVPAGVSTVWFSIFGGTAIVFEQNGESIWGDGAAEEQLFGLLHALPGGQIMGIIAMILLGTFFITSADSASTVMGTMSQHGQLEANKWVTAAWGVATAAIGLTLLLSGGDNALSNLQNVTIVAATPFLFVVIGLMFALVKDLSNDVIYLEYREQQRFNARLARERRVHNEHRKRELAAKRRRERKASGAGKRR
Test: biochemical

- Kd: 188 ± 34 µM
Compound: C[N+](C)(C)CC(=O)[O-] [betaine]
